ChEMBL document CHEMBL3351808, “Thiophenes, polyacetylenes and terpenes from the aerial parts of Eclipata prostrate” (Bioorg Med Chem, 2014)
Calls of active or inactive are those of the source. The calls are words filed in the database; no cut-off is given here.

Assays:
[1] = target: T1, Nuclear factor NF-kappa-B complex (Homo sapiens) (UniProt Q00653+P19838+Q04206); test: Inhibition of NFkappaB (unknown origin) expressed in LPS-stimulated HEK293-NF-kappaB-luc cells assessed as luminescence signals measured by relative light units at 100 ug/mL pre-treated for 4 hrs before LPS challenge for 24 hrs by luciferase assay; format: cell-based
[2] = target: T1, Nuclear factor NF-kappa-B complex (Homo sapiens); test: Inhibition of NFkappaB (unknown origin) expressed in LPS-stimulated HEK293-NF-kappaB-luc cells assessed as luminescence signals measured by relative light units at 10 ug/mL pre-treated for 4 hrs before LPS challenge for 24 hrs by luciferase assay; format: cell-based
[3] = target: T1, Nuclear factor NF-kappa-B complex (Homo sapiens); test: Inhibition of NFkappaB (unknown origin) expressed in LPS-stimulated HEK293-NF-kappaB-luc cells assessed as luminescence signals measured by relative light units at 1 ug/mL pre-treated for 4 hrs before LPS challenge for 24 hrs by luciferase assay; format: cell-based
[4] = target: T1, Nuclear factor NF-kappa-B complex (Homo sapiens); test: Inhibition of NFkappaB (unknown origin) expressed in LPS-stimulated HEK293-NF-kappaB-luc cells assessed as luminescence signals measured by relative light units at 500 ug/mL pre-treated for 4 hrs before LPS challenge for 24 hrs by luciferase assay; format: cell-based
Dipeptidyl peptidase 4 = Dipeptidyl peptidase 4 (Homo sapiens, UniProt P27487); test: Inhibition of DPP4 in human plasma using Gly-Pro-AMC substrate incubated for 20 mins by fluorometry
Sequence of Dipeptidyl peptidase 4 (P27487 whole entry): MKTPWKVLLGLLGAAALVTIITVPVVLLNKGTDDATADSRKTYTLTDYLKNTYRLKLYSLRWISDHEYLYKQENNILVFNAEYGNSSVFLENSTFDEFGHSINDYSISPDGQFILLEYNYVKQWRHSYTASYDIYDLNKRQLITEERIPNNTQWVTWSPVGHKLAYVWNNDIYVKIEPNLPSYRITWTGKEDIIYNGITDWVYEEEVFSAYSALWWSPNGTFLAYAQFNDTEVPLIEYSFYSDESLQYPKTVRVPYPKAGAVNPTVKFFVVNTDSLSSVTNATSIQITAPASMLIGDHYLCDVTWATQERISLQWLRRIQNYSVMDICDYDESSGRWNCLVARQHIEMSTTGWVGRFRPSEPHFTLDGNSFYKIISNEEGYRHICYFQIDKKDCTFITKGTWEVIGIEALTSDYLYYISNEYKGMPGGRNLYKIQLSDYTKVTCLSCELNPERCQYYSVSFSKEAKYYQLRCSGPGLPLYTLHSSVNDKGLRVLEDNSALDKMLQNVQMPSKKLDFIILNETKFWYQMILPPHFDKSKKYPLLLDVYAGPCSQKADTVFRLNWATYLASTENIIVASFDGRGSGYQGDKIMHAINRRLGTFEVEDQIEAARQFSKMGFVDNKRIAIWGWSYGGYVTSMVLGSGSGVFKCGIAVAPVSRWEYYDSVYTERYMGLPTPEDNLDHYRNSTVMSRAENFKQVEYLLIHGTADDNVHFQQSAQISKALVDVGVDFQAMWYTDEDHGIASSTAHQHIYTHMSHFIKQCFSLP

T1 sequence (P19838 whole entry, looked up): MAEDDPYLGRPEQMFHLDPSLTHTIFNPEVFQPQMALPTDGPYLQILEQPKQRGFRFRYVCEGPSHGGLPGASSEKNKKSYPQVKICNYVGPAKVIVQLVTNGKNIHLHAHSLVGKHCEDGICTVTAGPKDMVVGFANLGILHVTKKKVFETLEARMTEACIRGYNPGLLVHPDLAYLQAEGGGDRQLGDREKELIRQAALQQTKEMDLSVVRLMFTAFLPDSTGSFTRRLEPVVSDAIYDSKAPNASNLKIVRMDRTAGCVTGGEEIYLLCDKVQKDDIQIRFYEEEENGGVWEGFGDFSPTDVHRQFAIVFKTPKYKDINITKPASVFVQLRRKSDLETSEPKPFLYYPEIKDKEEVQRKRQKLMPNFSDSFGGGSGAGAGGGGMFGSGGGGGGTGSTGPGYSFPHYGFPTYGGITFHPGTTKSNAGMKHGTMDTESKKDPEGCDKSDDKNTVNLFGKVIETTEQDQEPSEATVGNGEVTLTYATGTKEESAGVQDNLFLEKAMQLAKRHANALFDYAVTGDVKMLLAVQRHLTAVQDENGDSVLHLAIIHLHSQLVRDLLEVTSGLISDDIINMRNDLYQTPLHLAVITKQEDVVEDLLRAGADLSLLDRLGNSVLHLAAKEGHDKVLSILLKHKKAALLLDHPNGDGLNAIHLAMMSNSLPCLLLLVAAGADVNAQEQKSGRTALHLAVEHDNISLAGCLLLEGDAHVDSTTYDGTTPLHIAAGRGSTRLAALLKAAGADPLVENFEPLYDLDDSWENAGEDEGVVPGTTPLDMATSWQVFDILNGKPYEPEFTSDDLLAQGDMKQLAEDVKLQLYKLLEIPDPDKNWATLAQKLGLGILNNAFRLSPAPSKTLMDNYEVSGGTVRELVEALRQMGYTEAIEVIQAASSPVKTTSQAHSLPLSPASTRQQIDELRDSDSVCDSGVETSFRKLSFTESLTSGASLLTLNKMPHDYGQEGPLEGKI
T1 sequence (Q00653 whole entry, looked up): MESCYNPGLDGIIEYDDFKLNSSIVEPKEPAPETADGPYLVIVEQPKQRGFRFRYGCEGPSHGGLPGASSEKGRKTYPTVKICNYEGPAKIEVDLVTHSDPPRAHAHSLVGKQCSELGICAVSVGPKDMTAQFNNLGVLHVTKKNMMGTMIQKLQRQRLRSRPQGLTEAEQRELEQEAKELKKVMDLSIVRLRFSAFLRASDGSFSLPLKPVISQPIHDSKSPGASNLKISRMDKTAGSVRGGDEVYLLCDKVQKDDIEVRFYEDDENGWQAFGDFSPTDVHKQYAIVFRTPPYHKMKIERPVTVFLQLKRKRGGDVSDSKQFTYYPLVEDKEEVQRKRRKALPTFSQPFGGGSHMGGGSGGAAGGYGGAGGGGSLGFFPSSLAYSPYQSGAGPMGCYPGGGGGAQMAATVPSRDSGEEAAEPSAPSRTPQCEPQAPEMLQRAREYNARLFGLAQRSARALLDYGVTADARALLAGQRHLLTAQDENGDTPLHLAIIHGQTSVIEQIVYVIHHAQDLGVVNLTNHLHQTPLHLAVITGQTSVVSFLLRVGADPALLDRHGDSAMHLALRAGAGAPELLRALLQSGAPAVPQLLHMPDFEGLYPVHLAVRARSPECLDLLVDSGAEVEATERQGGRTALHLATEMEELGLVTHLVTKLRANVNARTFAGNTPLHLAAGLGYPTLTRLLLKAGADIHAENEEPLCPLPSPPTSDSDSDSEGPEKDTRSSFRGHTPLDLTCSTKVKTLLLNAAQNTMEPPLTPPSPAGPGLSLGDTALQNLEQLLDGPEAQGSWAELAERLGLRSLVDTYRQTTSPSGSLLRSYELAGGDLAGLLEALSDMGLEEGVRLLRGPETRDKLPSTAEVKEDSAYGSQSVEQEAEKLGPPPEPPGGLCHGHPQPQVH
T1 sequence (Q04206 whole entry, looked up): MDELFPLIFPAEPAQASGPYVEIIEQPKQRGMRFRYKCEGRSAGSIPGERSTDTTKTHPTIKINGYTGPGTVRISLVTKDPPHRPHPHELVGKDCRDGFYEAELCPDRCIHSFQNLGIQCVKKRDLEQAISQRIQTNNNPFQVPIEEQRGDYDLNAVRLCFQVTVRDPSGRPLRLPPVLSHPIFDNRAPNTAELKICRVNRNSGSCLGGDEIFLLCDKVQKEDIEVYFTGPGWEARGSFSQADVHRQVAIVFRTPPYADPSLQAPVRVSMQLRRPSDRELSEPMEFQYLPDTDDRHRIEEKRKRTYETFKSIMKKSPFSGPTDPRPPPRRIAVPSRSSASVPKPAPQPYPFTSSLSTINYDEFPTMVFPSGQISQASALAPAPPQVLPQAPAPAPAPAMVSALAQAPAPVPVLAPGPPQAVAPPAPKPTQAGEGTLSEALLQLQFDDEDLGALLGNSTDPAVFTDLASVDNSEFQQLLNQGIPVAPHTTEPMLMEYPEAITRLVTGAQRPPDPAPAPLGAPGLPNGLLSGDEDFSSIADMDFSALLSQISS

Row | Activity [1] | Activity [2] | Activity [3] | Activity [4] | RLU [1] | RLU [2] | RLU [3] | RLU [4] | SMILES | IC50 (Dipeptidyl peptidase 4) [µM]
1 | inactive | inactive | inactive | inactive | – | – | – | – | CC1(C)[C@@H](O[C@@H]2O[C@H](CO)[C@@H](O)[C@H](O)[C@H]2O)CC[C@]2(C)[C@H]3CC=C4[C@@H]5C[C@](C)(CO)CC[C@]5(C)[C@@H](O)C[C@@]4(C)[C@]3(C)CC[C@@H]12 | –
2 | – | – | – | – | – | – | – | – | CC#CC#CC#C/C=C/C=C/C(CCO)O[C@@H]1O[C@H](CO)[C@@H](O)[C@H](O)[C@H]1O (some centres not stated) | > 100
3 | – | – | – | – | 0.49 | 0.06 | 0.01 | 0.72 | CC1(C)C=C2[C@H]3CC[C@@H]4[C@@]5(C)CC[C@H](O[C@@H]6O[C@H](CO)[C@@H](O)[C@H](O)[C@H]6O[C@@H]6O[C@H](CO)[C@@H](O)[C@H](O)[C@H]6O)C(C)(C)[C@@H]5CC[C@@]4(C)[C@]3(C)CC[C@@]2(C(=O)O[C@@H]2O[C@H](CO)[C@@H](O)[C@H](O)[C@H]2O)CC1 | –
4 | inactive | inactive | inactive | inactive | – | – | – | – | CC1(C)CC[C@]2(C(=O)O[C@@H]3O[C@H](CO)[C@@H](O)[C@H](O)[C@H]3O)CC[C@]3(C)C(=CC[C@@H]4[C@@]5(C)CC[C@H](O[C@@H]6O[C@H](CO)[C@@H](O)[C@H](O)[C@H]6O)C(C)(C)[C@@H]5CC[C@]43C)[C@@H]2C1 | –
5 | – | – | – | – | – | – | – | – | C=CC(O)C(/C=C/C#CC#CC#CC)O[C@@H]1O[C@H](CO)[C@@H](O)[C@H](O)[C@H]1O (some centres not stated) | > 100
6 | inactive | inactive | inactive | inactive | – | – | – | – | CC1(C)CC[C@]2(C(=O)O[C@@H]3O[C@H](CO)[C@@H](O)[C@H](O)[C@H]3O)[C@H](O)C[C@]3(C)C(=CC[C@@H]4[C@@]5(C)CC[C@H](O[C@@H]6O[C@H](CO)[C@@H](O)[C@H](O)[C@H]6O[C@@H]6O[C@H](CO)[C@@H](O)[C@H](O)[C@H]6O)C(C)(C)[C@@H]5CC[C@]43C)[C@@H]2C1 | –
7 | inactive | inactive | inactive | inactive | – | – | – | – | C=C(C)[C@@H]1CC[C@]2(C(=O)O[C@@H]3O[C@H](CO)[C@@H](O)[C@H](O)[C@H]3O)CC[C@]3(C)[C@H](CC[C@@H]4[C@@]5(C)CC[C@H](O[C@@H]6O[C@H](CO)[C@@H](O)[C@H](O)[C@H]6O)C(C)(C)[C@@H]5CC[C@]43C)[C@@H]12 | –
8 | – | – | – | – | 0.45 | 0.32 | 0.15 | 0.64 | C[C@]12CCC(=O)C=C1CC[C@@H]1[C@@H]2[C@@H](O)C[C@@]2(C)[C@H]1CC[C@]2(O)C(=O)CO | –
9 | inactive | inactive | inactive | inactive | – | – | – | – | C[C@H]1[C@H]2[C@H]3CC[C@@H]4[C@@]5(C)CC[C@H](O[C@@H]6O[C@H](CO)[C@@H](O)[C@H](O)[C@H]6O)C(C)(C)[C@@H]5CC[C@@]4(C)[C@]3(C)C[C@H](O)[C@@]2(C)CC[C@]1(C)O | –
10 | inactive | inactive | inactive | inactive | – | – | – | – | CC1(C)CC[C@]2(C(=O)O[C@@H]3O[C@H](CO)[C@@H](O)[C@H](O)[C@H]3O)[C@@H](O)C[C@]3(C)C(=CC[C@@H]4[C@@]5(C)CC[C@H](O[C@@H]6O[C@H](CO)[C@@H](O)[C@H](O)[C@H]6O)C(C)(C)[C@@H]5CC[C@]43C)[C@@H]2C1 | –
11 | – | – | – | – | 0.47 | 0.24 | 0.18 | 0.5 | C[C@H]1[C@H]2[C@H]3CC[C@@H]4[C@@]5(C)CC[C@H](O[C@@H]6O[C@H](CO)[C@@H](O)[C@H](O)[C@H]6O)C(C)(C)[C@@H]5CC[C@@]4(C)[C@]3(C)CC[C@@]2(CO)CC[C@]1(C)O | –
12 | inactive | inactive | inactive | inactive | – | – | – | – | CC(C)[C@H]1C[C@H]2O[C@@]2(C)[C@@H](O)[C@H]1O[C@@H]1O[C@H](CO)[C@@H](O)[C@H](O)[C@H]1O (relative stereo) | –
13 | – | – | – | – | 0.23 | 0.16 | -0.01 | 0.07 | CC1(C)CC[C@]2(C(=O)O[C@@H]3O[C@H](CO)[C@@H](O)[C@H](O)[C@H]3O)[C@H](O)C[C@]3(C)C(=CC[C@@H]4[C@@]5(C)CC[C@H](O[C@@H]6O[C@H](CO)[C@@H](O)[C@H](O)[C@H]6OS(=O)(=O)O)C(C)(C)[C@@H]5CC[C@]43C)[C@@H]2C1 | –
14 | – | – | – | – | 0.47 | 0.23 | 0.09 | 0.59 | CC1(C)CC[C@]2(C(=O)O[C@@H]3O[C@H](CO)[C@@H](O)[C@H](O)[C@H]3O)CC[C@]3(C)C(=CC[C@@H]4[C@@]5(C)CC[C@H](O[C@@H]6O[C@H](CO)[C@@H](O)[C@H](O)[C@H]6O[C@@H]6O[C@H](CO)[C@@H](O)[C@H](O)[C@H]6O)C(C)(C)[C@@H]5CC[C@]43C)[C@@H]2C1 | –
15 | – | – | – | – | 0.33 | 0.22 | 0.08 | 0.5 | CC1(C)CC[C@]2(C(=O)O[C@@H]3O[C@H](CO)[C@@H](O)[C@H](O)[C@H]3O)[C@H](O)C[C@]3(C)C(=CC[C@@H]4[C@@]5(C)CC[C@H](O[C@@H]6O[C@H](CO)[C@@H](O)[C@H](O)[C@H]6O)C(C)(C)[C@@H]5CC[C@]43C)[C@@H]2C1 | –
16 | – | – | – | – | 0.26 | 0.21 | 0.04 | 0.47 | C=CC(C)(O)CC/C=C(\C)CC/C=C(\C)CO[C@@H]1O[C@H](CO)[C@@H](O)[C@H](O)[C@H]1O (some centres not stated) | –
17 | inactive | inactive | inactive | inactive | – | – | – | – | CC(C)[C@H]1C[C@H]2O[C@@]2(C)[C@@H](O)[C@H]1O[C@@H]1O[C@H](COC(=O)/C=C/c2ccc(O)c(O)c2)[C@@H](O)[C@H](O)[C@H]1O (relative stereo) | –
